Results published in US5792742A, “Fibrin-binding peptide fragments of fibronectin” (New York University, priority 1994, dated 1998).

Legend:
fibrin [1] = assay: Rebinding of eluted 11 kDa fragment to fibrin column; type: binding, bovine
Experimental: Thus, although 100% of the 11 kDa peptide that was applied to the column could be eluted, only 40-50% of the protein rebound to a second fibrin column at 4° C., and only 20% bound at 37° C.
The 11 kDa peptide of fibronectin (or 25.9 kDa peptide) and genetically engineered and expressed proteins of fibronectin type I repeat modules are subjected to fibrin-SEPHAROSE™ chromatography as described above.

thrombi = assay: Preliminary thrombus binding dose experiment in rats; type: in vivo; details: 3.4 μCi/13.3 μg/rat (550 gr)
Experimental: Determination of thrombus to blood and thrombus to muscle ratios: Before performing the pharmacokinetic studies, the arterial and venous vessels of the same animals are wounded until a thrombus is formed. The ascending vena cava (below the kidneys) and the descending aorta (immediately above the bifurcation) are clamped with a rubber tipped mosquito clamps for 2 hours for the artery and one hour for the vein. A thrombotic occlusion is formed of approximately 1.5 cm length. The specific binding of ^125 I-FBP (11 kDa to start) to the preformed thrombus, is determined compared to blood and muscle (wt/wt), over time, following injection. The amount of ^125 I-FBP that binds to an injured vessel versus an uninjured vessel is also quantitated. The time for optimal binding is crucial for feasibility of imaging (less than two hours would be considered adequate). The testing of binding to thrombi prepared 24 hours (or longer) ahead (preformed thrombi) compared to newly formed thrombi is also performed. This will determine the efficacy of ^125 I-FBP to older and newly forming thrombi.
Dosimetry Studies: Determination of the optimal dose (μCi/μg/kg) required for binding (Dose response) to thrombi: Three different doses were injected following injury, and thrombi removed at the various indicated above.

fibrin [2] = assay: Reversibility (displacement) of 125I-11 kDa FBP binding to fibrin; details: 2,000 nM unlabeled peptide (22.2 molar excess)
Experimental: Detachable microtiter wells previously coated with 15 ng of fibrin were incubated with 100 ng/0.1 ml FBB (90 nM) of ^125 I-11 kDa for 1 hour at 22° C. The unbound radiolabeled protein was removed by extensive washing with FBB containing 0.1% Tween 20. […] The iodinated 11 kDa that remained bound to the removable wells was determined by quantitating the radioactivity attached to the individual wells in a gamma counter. Results were expressed as percentage of control wells incubated with buffer alone.

fibrin [3] = assay: Fibrin-SEPHAROSE affinity chromatography (binding and elution); parameters: species or system bovine; details: temperature change vs denaturing conditions (6M urea or 50% ethylene glycol) for elution
Experimental: Bovine fibrinogen was cross-linked to CNBr-activated SEPHAROSE™ (5 mg/ml beads) according to the manufacturer's instructions. Coupled fibrinogen was subsequently converted to fibrin by incubation with human thrombin to a final concentration of 5 NIH units/ml and 100 K.I. (kallikrein inhibitory) units/ml of aprotinin (in 0.05M Tris-HCI buffer, pH 7.6, containing 0.1M NaCl and 0.01M EDTA) for three hours, at room temperature (Gold, et al. (1983) Biochemistry 22, 4113-4119).
1.0M NaCl in 0.05M tris buffer, pH 8.0.
The fibrin-binding activity of the proteolytically derived 25.9 kDa fragment of Fn was determined by its ability to bind to a fibrin affinity matrix. […] FBB was used to equilibrate and wash the column. Following warming of the column to 22° C., the column was washed with FBB until absorbance at 280 nm (A280) was less than 0.01, and bound protein eluted with 0.05M Tris-HCl, 0.5M NaCl, 6M urea buffer, pH 7.6.
The module (500 μg/1.0 ml) was incubated for 4 hours (while rotating) at 4° C. in the presence of 1.0 ml fibrin-SEPHAROSE™ (5 mg fibrin/ml SEPHAROSE™ beads) equilibrated in […] Tris-HCl, 0.1M NaCl buffer, pH 7.6.
The 11 KDa peptide (50 μg/0.206 ml) was radiolabeled using the IODO-BEAD method (Pierce Chemical). The peptide was added to one IODO-BEAD in the presence of 100 μCi ^125 I (17.4 Ci/mg, New England Nuclear) and incubated on ice for 10 minutes. The bead was removed and the free ^125 I removed by chromatography through a PD10 column containing SEPHADEX™ G-25 (Pharmacia). […] The radioiodinated 11 kDa fibrin-binding peptide (500 μg/1.5 ml) was combined with 1 ml of fibrin-SEPHAROSE™ (5 mg fibrin/ml beads) equilibrated with 50 mM Tris-HCl, 0.1M NaCl buffer, pH 7.6, and rotated for 4 hours, at 4° C. The mixture was poured onto a disposable column (0.6 cm×8.0) and the unbound protein washed through. The column was equilibrated to room temperature and washed with the equilibration buffer.

fibrin [4] = assay: Competitive inhibition of 125I-11 kDa binding to fibrin-coated wells; details: 125I-11 kDa 90 nM
Experimental: Analysis of the binding data was performed by non linear regression and curve fitting to the one-site competitive binding curves (GraphPad Prism).

11 kDa FBP: 11 kDa C-terminal proteolytic (subtilisin) fibrin-binding fragment of human plasma fibronectin, residues 2123-2232 of SEQ ID NO:1
% Rebound to fibrin (fibrin [1]; 4° C., eluted with 1.0M KBr): 7-10% | % Rebound to fibrin (fibrin [1]; 4° C., eluted with 2.0M Urea): 60% | % Rebound to fibrin (fibrin [1]; 4° C., eluted with 4.0M Urea): 45-52% | % Rebound to fibrin (fibrin [1]; 4° C., eluted with 6.0M Urea): 40-50% | % Rebound to fibrin (fibrin [1]; 4° C., eluted with 6.0M Urea (step dialysis)): 40-50% | % Rebound to fibrin (fibrin [1]; 4° C., eluted with ethylene glycol, listed as 11 kDa FRAGMENT): 80% | % Rebound to fibrin (fibrin [1]; 4° C., eluted with ethylene glycol, listed as 11 kDa peptide): 60% | % Rebound to fibrin (fibrin [1]; 37° C., eluted with 6.0M urea): 20% | % Rebound to fibrin (fibrin [1]; 37° C., eluted with ethylene glycol): 49.5% | binding to thrombi compared to blood (thrombi): sufficient binding to thrombi compared to blood | % of bound iodinated 11 kDa reversibly displaced (fibrin [2]): 42% | relative affinity for fibrin (from elution conditions) (fibrin [3]): markedly higher | concentration at which maximum inhibition was achieved (fibrin [4]): 4 µM | molar excess at maximum inhibition (fibrin [4]): 44.4 | IC50 (fibrin [4]; 15 ng fibrin, 1 hour 22° C., read-out: IC50, 125I-11 kDa binding to fibrin decreased by 50%): 605 nM
